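Growth conditions: 96-well plates. Treatment: test compound, 48 hours, 5 concentrations. Analysis: linear interpolation between bracketing concentrations; unreached endpoints set to highest concentration. At the GI50, growth is halved. TGI: concentration producing complete growth inhibition.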
Experiments:
Assay in all cases: NCI tumour cell line growth inhibition, 48 h
[1] = tested on: 786-0 renal
[2] = tested on: A498 renal
[3] = tested on: A549 NSCLC
[4] = tested on: BT-549 breast
[5] = tested on: CAKI-1 renal
[6] = tested on: CCRF-CEM leukemia
[7] = tested on: COLO 205 colon
[8] = tested on: EKVX NSCLC
[9] = tested on: HCC-2998 colon
[10] = tested on: HCT-116 colon
[11] = tested on: HOP-62 NSCLC
[12] = tested on: HS 578T breast
[13] = tested on: HT29 colon
[14] = tested on: K-562 leukemia
[15] = tested on: KM12 colon
[16] = tested on: LOX IMVI melanoma
[17] = tested on: M14 melanoma
[18] = tested on: MALME-3M melanoma
[19] = tested on: MCF7 breast
[20] = tested on: MDA-MB-231 breast
[21] = tested on: MDA-MB-435
[22] = tested on: MOLT-4 leukemia
[23] = tested on: NCI-H226 lung
[24] = tested on: NCI-H23 lung
[25] = tested on: NCI-H460 lung
[26] = tested on: NCI-H522 lung
[27] = tested on: NCI/ADR-RES ovarian
[28] = tested on: OVCAR-3 ovarian
[29] = tested on: OVCAR-5 ovarian
[30] = tested on: OVCAR-8 ovarian
[31] = tested on: PC-3 prostate
[32] = tested on: RPMI-8226 leukemia
[33] = tested on: RXF 393 renal
[34] = tested on: SF-268 CNS
[35] = tested on: SF-295 CNS
[36] = tested on: SF-539 CNS
[37] = tested on: SK-MEL-2 melanoma
[38] = tested on: SK-MEL-28 melanoma
[39] = tested on: SK-MEL-5 melanoma
[40] = tested on: SK-OV-3 ovarian
[41] = tested on: SN12C renal
[42] = tested on: SNB-19 CNS
[43] = tested on: SNB-75 CNS
[44] = tested on: SR leukemia
[45] = tested on: SW-620 colon
[46] = tested on: TK-10 renal
[47] = tested on: U251 CNS
[48] = tested on: UACC-257 melanoma
[49] = tested on: UACC-62 melanoma
[50] = tested on: UO-31 renal

COc1cc2c(c(OC)c1OC)-c1c(c3ccc([N+](=O)[O-])cc3c(=O)n1CCCBr)C2=O
GI50 [1]: 35.1 µM | TGI [1]: > 100 µM | GI50 [2]: > 100 µM | TGI [2]: > 100 µM | GI50 [3]: 62.8 µM | TGI [3]: > 100 µM | GI50 [4]: 35.8 µM | TGI [4]: 97.5 µM | GI50 [5]: 13.4 µM | TGI [5]: 61.3 µM | GI50 [6]: 14.8 µM | TGI [6]: > 100 µM | GI50 [7]: > 100 µM | TGI [7]: > 100 µM | GI50 [8]: > 100 µM | TGI [8]: > 100 µM | GI50 [9]: 50.4 µM | TGI [9]: > 100 µM | GI50 [10]: 18.7 µM | TGI [10]: > 100 µM | GI50 [11]: 15.8 µM | TGI [11]: 54.3 µM | GI50 [12]: 67.9 µM | TGI [12]: > 100 µM | GI50 [13]: > 100 µM | TGI [13]: > 100 µM | GI50 [14]: 38.8 µM | TGI [14]: > 100 µM | GI50 [15]: 60.7 µM | TGI [15]: > 100 µM | GI50 [16]: 31.9 µM | TGI [16]: > 100 µM | GI50 [17]: 21 µM | TGI [17]: 59.1 µM | GI50 [18]: 11.4 µM | TGI [18]: 47.6 µM | GI50 [19]: 0.0551 µM | TGI [19]: 0.439 µM | GI50 [20]: 31.3 µM | TGI [20]: > 100 µM | GI50 [21]: > 100 µM | TGI [21]: > 100 µM | GI50 [22]: 15.2 µM | TGI [22]: > 100 µM | GI50 [23]: 13.5 µM | TGI [23]: 68.5 µM | GI50 [24]: 68.9 µM | TGI [24]: > 100 µM | GI50 [25]: 8.53 µM | TGI [25]: > 100 µM | GI50 [26]: 17 µM | TGI [26]: > 100 µM | GI50 [27]: 70.6 µM | TGI [27]: > 100 µM | GI50 [28]: > 100 µM | TGI [28]: > 100 µM | GI50 [29]: > 100 µM | TGI [29]: > 100 µM | GI50 [30]: 49.8 µM | TGI [30]: > 100 µM | GI50 [31]: 26.3 µM | TGI [31]: > 100 µM | GI50 [32]: 35 µM | TGI [32]: > 100 µM | GI50 [33]: 24.4 µM | TGI [33]: > 100 µM | GI50 [34]: 4.83 µM | TGI [34]: 45.8 µM | GI50 [35]: 24.2 µM | TGI [35]: > 100 µM | GI50 [36]: 4.5 µM | TGI [36]: 17.9 µM | GI50 [37]: > 100 µM | TGI [37]: > 100 µM | GI50 [38]: > 100 µM | TGI [38]: > 100 µM | GI50 [39]: 19.8 µM | TGI [39]: 65.8 µM | GI50 [40]: > 100 µM | TGI [40]: > 100 µM | GI50 [41]: 19.7 µM | TGI [41]: > 100 µM | GI50 [42]: 57.4 µM | TGI [42]: > 100 µM | GI50 [43]: 80 µM | TGI [43]: > 100 µM | GI50 [44]: 4.37 µM | TGI [44]: > 100 µM | GI50 [45]: 18.2 µM | TGI [45]: > 100 µM | GI50 [46]: 23.5 µM | TGI [46]: 90.2 µM | GI50 [47]: 24.4 µM | TGI [47]: > 100 µM | GI50 [48]: > 100 µM | TGI [48]: > 100 µM | GI50 [49]: 23.8 µM | TGI [49]: 90.1 µM | GI50 [50]: 14.4 µM | TGI [50]: 72.5 µM

Source: PubChem BioAssay (NCI)
